Results from PubChem BioAssay (NCI).
Values joined by “and” are separate entries in the source; they are usually repeats but may differ in a detail not shown here. Identical values can stand only once.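 Following 48 hours of exposure in 96-well plates, responses at five concentrations were used to interpolate endpoints linearly. Here, GI50 denotes the concentration required for 50% inhibition of growth. At the TGI there is no net growth.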

What was measured:
Assay in all cases: growth of human tumour cells (NCI), 48 h
A549 NSCLC = test system: A549 NSCLC
HCT-116 colon = test system: HCT-116 colon
KM12 colon = test system: KM12 colon
NCI/ADR-RES ovarian = test system: NCI/ADR-RES ovarian
OVCAR-4 ovarian = test system: OVCAR-4 ovarian
RXF 393 renal = test system: RXF 393 renal
SK-MEL-2 melanoma = test system: SK-MEL-2 melanoma
SK-OV-3 ovarian = test system: SK-OV-3 ovarian
SNB-75 CNS = test system: SNB-75 CNS
UACC-62 melanoma = test system: UACC-62 melanoma

| SMILES | GI50 (A549 NSCLC) | TGI (A549 NSCLC) | GI50 (HCT-116 colon) | TGI (HCT-116 colon) | GI50 (KM12 colon) | TGI (KM12 colon) | GI50 (NCI/ADR-RES ovarian) | TGI (NCI/ADR-RES ovarian) | GI50 (OVCAR-4 ovarian) | TGI (OVCAR-4 ovarian) | GI50 (RXF 393 renal) | TGI (RXF 393 renal) | GI50 (SK-MEL-2 melanoma) | TGI (SK-MEL-2 melanoma) | GI50 (SK-OV-3 ovarian) | TGI (SK-OV-3 ovarian) | GI50 (SNB-75 CNS) | TGI (SNB-75 CNS) | GI50 (UACC-62 melanoma) | TGI (UACC-62 melanoma) |
| --- | --- | --- | --- | --- | --- | --- | --- | --- | --- | --- | --- | --- | --- | --- | --- | --- | --- | --- | --- | --- |
| COc1ccc(/C(C#N)=C2C=C/C(=N/O)c3ccccc3\2)cc1 | 0.339 µM | 13.4 µM | 0.328 µM | 11 µM | 0.175 µM | 4.82 µM | 0.125 µM | 2.94 µM | 0.927 µM | 39.1 µM | 0.437 µM | 20.6 µM | 0.415 µM | 12.3 µM | 0.301 µM | 3.4 µM | 0.259 µM | 11.5 µM | 0.48 µM | 7.47 µM |
| CO[C@H]1C[C@@H]2CC[C@@H](C)[C@@](O)(O2)C(=O)C(=O)N2CCCC[C@H]2C(=O)O[C@H]([C@H](C)C[C@@H]2CC[C@@H](OCCO)[C@H](OC)C2)CC(=O)[C@H](C)C=C(C)[C@@H](O)[C@@H](OC)C(=O)[C@H](C)C[C@H](C)/C=C/C=C/C=C1C | < 0.01 µM | 22.3 µM | 3.43 µM | 18.9 µM | 1.18 µM | 21.2 µM | 3.26 µM | 31.7 µM | < 0.0124 µM | 17.1 µM | < 0.01 µM |  |  | 21.4 µM | < 0.01 µM | 20.5 µM | < 0.01 µM | 14.1 µM | 0.342 µM | 19.9 µM |
| COc1nnc2ccc(N3CCC(c4ccc(OCCN5CCN(C)C(=O)[C@H]5C)cc4)CC3)nn12 | 0.436 µM | > 100 µM | 0.0723 µM | > 100 µM | 0.322 µM | > 100 µM | 0.845 µM | > 100 µM | 0.106 µM | > 100 µM | 3.85 µM | > 100 µM | 0.678 µM | > 100 µM | 0.0774 µM | > 42.1 µM | 0.0144 µM | 73.7 µM | < 0.0153 µM | > 56.9 µM |
| Nc1ncnc2c1ncn2C1OC(CO)C(O)C1N (configuration not stated) |  | > 100 µM |  | > 100 µM |  | > 100 µM |  | > 100 µM |  | > 100 µM |  | > 100 µM |  | > 100 µM |  | > 100 µM |  | > 100 µM |  | > 100 µM |
| COC(=O)c1ccc(NC(=O)Oc2ccc(N(CCCl)CCCl)cc2)cc1 | 1.65 µM | > 100 µM | 11.2 µM | > 100 µM | 24.4 µM | > 100 µM | 6.54 µM | 53.8 µM | 13.8 µM | 38.2 µM | 6.28 µM | 32.3 µM | 20 µM | 52.5 µM | 4.41 µM | 29.5 µM | 6.16 µM | 54.5 µM | 3.36 µM | 23.5 µM |
| c1cc2c(cn1)Nc1ccncc1S2 | 32.8 µM | > 100 µM | 17.9 µM | 69.5 µM | 32.3 µM | > 100 µM | 37.1 µM | > 100 µM | > 100 µM | > 100 µM | 15.6 µM | 42.3 µM | 35.2 µM | > 100 µM | 15.2 µM | 80.6 µM | 43.9 µM | > 100 µM | 41.9 µM | > 100 µM |
| Cc1ccc(S(=O)(=O)NC(CN)C(=O)O)cc1 (configuration not stated) |  | > 100 µM |  | > 100 µM |  | > 100 µM |  | > 100 µM |  | > 100 µM |  | > 100 µM |  | > 100 µM |  | > 100 µM |  | > 100 µM |  | > 100 µM |
| COc1ccc(N=N/C(C(=O)C(F)(F)F)=C(\O)c2ccc(Cl)cc2)cc1 | 3.83 µM | 16.8 µM | 6.64 µM | 26.2 µM | 2.61 µM | 38.7 µM | 3.56 µM | 23.2 µM | 21.6 µM | > 100 µM | 12.3 µM | 45 µM | 2.78 µM | 8.68 µM | 14.4 µM | 35.3 µM | 10.3 µM | 37.6 µM | 3.91 µM | > 100 µM |
| NC(=S)c1c(N)n(C2OC(CO)C(O)C2O)c2ncnc(N)c12 (configuration not stated) | 0.301 µM | > 100 µM | 0.211 µM |  | 0.258 µM | 9.61 µM | 0.276 µM | 1.27 µM | 0.264 µM | > 100 µM | 0.237 µM | 0.557 µM | 0.297 µM | 1.07 µM | 0.388 µM | > 100 µM | 0.885 µM | 4.17 µM | 0.263 µM | 1.37 µM |
| C=CC(=O)N1CC2(CC(n3nc(-c4ccc5c(cnn5C)c4)c(-c4c(Cl)c(C)cc5[nH]ncc45)c3C)C2)C1 | 3.05 µM | 12.5 µM | 1.83 µM | 3.74 µM | 1.92 µM | 3.72 µM | 2.23 µM | 5.21 µM | 3.52 µM | 14.8 µM | 1.6 µM | 3.49 µM | 1.91 µM | 3.63 µM | 5.17 µM | 18.2 µM | 2.57 µM | 11.9 µM | 1.94 µM | 4.04 µM |
| CCN(CC)Cc1cc2[nH]c3c4ccc(Cl)cc4ncc3c2cc1OC | 3.46 µM and 3.16 µM | 13.3 µM and 10.5 µM | 1.85 µM and 1.65 µM | 5.92 µM and 3.15 µM | 2.18 µM and 1.72 µM | 7.09 µM and 4.37 µM | 3.67 µM and 3.31 µM | 13.5 µM and 12 µM | 1.9 µM and 1.54 µM | 4.33 µM and 3.4 µM | 2.07 µM and 1.68 µM | 4.25 µM and 3.27 µM | 7.39 µM and 16.5 µM | 16.6 µM and 31.6 µM | 14.2 µM and 3.63 µM | 27.3 µM and 12.1 µM | 1.61 µM and 1.81 µM | 3.92 µM and 3.88 µM | 15.5 µM and 1.81 µM | 29.4 µM and 3.46 µM |
| CC1=C(Nc2ccc(N3CCN(C)CC3)cc2)C(=O)c2cncnc2C1=O | 3.96 µM | 17.6 µM | 2.48 µM | 6.13 µM | 10.1 µM | 30.4 µM | 3.09 µM | 20.3 µM | 1.09 µM | 2.28 µM | 5.71 µM | 19.4 µM | 16 µM | 42 µM | 16.7 µM | 35.3 µM | 14.7 µM | 30 µM | 2.38 µM | 5.64 µM |
| O=C(Nc1nc2ccccc2s1)Nc1ccc([N+](=O)[O-])cc1Cl | 2.17 µM | 5.7 µM | 2.12 µM | 4.54 µM | 2.82 µM | 8.48 µM | 2.99 µM | 9.93 µM | 1.86 µM | 3.68 µM | 1.59 µM | 3.28 µM | 12.7 µM | 26.9 µM | 8.52 µM | 22.2 µM | 1.87 µM | 5.36 µM | 3.1 µM | 8.94 µM |
